Source: US8933230B2, “Phosphorus-containing group-substituted quinoline, its preparation process, medical composition containing the compounds and application” (priority 2011, dated 2015)

How the values were obtained:
Assay in all cases: KinomeScan kinase panel
Type in all cases: binding
[1] = biological target: T1, EGFR(L861Q) (Homo sapiens, UniProt P00533, L861Q)
T1 construct: purchased DiscoveRx Corporation (KinomeScan)
Summary of the method: (§1)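 Tested at 1000 nM in the KinomeScan 442-kinase competition binding panel, with inhibition of each kinase or mutant reported at that single concentration.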

[2] = biological target: T2, HPK1 (Homo sapiens, UniProt Q92918)
T2 construct: purchased DiscoveRx Corporation (KinomeScan)
Summary of the method: as §1

[3] = biological target: T3, RIPK2 (Homo sapiens, UniProt O43353)
T3 construct: purchased DiscoveRx Corporation
T3 sequence (O43353 whole entry): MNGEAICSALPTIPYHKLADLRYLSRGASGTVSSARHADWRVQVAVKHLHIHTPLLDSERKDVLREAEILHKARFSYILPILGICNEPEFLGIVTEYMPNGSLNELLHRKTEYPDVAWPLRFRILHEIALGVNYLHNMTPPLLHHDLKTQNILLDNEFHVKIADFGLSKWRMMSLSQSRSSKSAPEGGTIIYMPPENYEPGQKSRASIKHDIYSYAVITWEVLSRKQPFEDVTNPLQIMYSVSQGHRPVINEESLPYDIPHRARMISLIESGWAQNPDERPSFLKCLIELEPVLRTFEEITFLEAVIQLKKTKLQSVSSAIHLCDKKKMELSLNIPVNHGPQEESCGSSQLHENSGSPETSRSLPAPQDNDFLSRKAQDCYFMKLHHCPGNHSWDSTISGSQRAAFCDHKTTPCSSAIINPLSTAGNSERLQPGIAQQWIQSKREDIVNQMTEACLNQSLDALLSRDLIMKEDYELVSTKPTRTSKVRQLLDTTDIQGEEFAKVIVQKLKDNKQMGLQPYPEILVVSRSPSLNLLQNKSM
Summary of the method: as §1

[4] = biological target: T4, EGFR(L858R) (Homo sapiens, UniProt P00533, L858R)
T4 construct: purchased DiscoveRx Corporation (KinomeScan)
Summary of the method: as §1

[5] = biological target: T5, SRC (Homo sapiens, UniProt P12931)
T5 construct: purchased DiscoveRx Corporation (KinomeScan)
Summary of the method: as §1

[6] = biological target: T6, CSNK2A2 (Homo sapiens, UniProt P19784)
T6 construct: purchased DiscoveRx Corporation (KinomeScan)
Summary of the method: as §1

[7] = biological target: T7, PIK3CA(E545K) (Homo sapiens, UniProt P42336, E545K)
T7 construct: purchased DiscoveRx Corporation (KinomeScan)
T7 sequence (P42336 whole entry E545K): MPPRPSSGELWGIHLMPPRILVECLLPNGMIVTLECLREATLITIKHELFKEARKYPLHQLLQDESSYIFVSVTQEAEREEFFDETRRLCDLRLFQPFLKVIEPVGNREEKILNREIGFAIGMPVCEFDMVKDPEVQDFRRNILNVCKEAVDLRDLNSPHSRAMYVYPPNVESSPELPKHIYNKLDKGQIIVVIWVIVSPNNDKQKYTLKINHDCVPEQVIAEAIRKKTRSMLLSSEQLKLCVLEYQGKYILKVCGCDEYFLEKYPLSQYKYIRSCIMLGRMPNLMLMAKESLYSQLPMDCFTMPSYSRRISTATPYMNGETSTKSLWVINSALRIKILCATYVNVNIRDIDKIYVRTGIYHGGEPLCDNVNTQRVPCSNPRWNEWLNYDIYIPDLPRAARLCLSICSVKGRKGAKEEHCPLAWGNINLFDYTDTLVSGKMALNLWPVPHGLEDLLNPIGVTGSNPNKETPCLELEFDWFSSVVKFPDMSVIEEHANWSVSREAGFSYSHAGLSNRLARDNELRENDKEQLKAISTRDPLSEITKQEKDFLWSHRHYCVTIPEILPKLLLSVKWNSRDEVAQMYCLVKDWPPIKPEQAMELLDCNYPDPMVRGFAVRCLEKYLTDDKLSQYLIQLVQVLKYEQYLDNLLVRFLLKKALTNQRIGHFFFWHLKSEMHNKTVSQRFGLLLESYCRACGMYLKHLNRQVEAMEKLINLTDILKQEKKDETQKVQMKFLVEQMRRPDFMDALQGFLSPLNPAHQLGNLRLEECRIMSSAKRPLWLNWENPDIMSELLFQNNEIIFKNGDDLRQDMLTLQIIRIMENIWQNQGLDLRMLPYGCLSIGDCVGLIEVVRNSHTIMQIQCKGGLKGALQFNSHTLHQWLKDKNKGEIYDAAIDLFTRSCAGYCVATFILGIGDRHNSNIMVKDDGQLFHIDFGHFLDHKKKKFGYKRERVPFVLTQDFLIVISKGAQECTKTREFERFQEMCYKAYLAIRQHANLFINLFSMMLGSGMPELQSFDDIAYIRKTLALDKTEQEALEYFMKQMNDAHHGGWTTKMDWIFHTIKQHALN
Summary of the method: as §1

[8] = biological target: T8, TAK1 (Homo sapiens, UniProt O43318)
T8 construct: purchased DiscoveRx Corporation (KinomeScan)
T8 sequence (O43318 whole entry): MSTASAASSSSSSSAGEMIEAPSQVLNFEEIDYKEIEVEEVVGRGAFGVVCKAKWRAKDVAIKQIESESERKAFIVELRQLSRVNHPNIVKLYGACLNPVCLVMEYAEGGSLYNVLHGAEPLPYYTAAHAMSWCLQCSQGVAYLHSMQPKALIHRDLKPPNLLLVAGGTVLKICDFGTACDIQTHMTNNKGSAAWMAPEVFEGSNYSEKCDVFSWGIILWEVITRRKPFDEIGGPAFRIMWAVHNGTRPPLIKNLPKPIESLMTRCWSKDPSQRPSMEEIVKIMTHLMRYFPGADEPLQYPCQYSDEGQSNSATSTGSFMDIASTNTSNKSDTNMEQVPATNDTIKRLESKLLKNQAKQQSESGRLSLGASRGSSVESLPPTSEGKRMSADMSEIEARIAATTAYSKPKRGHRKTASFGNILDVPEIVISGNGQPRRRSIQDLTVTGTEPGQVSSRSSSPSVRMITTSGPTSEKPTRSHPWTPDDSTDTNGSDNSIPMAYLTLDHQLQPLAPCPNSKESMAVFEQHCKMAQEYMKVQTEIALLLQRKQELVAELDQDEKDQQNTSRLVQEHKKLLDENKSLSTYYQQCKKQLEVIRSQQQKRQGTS
Summary of the method: as §1

[9] = biological target: T9, KIT(D816H) (Homo sapiens, UniProt P10721, D816H)
T9 construct: purchased DiscoveRx Corporation (KinomeScan)
Summary of the method: as §1

[10] = biological target: T10, MST3 (Homo sapiens, UniProt Q9Y6E0)
T10 construct: purchased DiscoveRx Corporation (KinomeScan)
Summary of the method: as §1

[11] = biological target: T11, NDR1 (Homo sapiens, UniProt Q15208)
T11 construct: purchased DiscoveRx Corporation (KinomeScan)
Summary of the method: as §1

[12] = biological target: T12, MET(Y1235D) (Homo sapiens, UniProt P08581, Y1235D)
T12 construct: purchased DiscoveRx Corporation (KinomeScan)
Summary of the method: as §1

[13] = biological target: T13, PIK3CB (Homo sapiens, UniProt P42338)
T13 construct: purchased DiscoveRx Corporation (KinomeScan)
Summary of the method: as §1

[14] = biological target: T14, MAP4K2 (Homo sapiens, UniProt Q12851)
T14 construct: purchased DiscoveRx Corporation (KinomeScan)
Summary of the method: as §1

[15] = biological target: T15, YSK4 (Homo sapiens, UniProt Q56UN5)
T15 construct: purchased DiscoveRx Corporation (KinomeScan service)
Summary of the method: as §1

[16] = biological target: T16, ABL1(H396P)-phosphorylated (Homo sapiens, UniProt P00519, H396P)
T16 construct: purchased DiscoveRx Corporation (KinomeScan)
Summary of the method: as §1

[17] = biological target: T17, ABL1(Y253F)-phosphorylated (Homo sapiens, UniProt P00519, Y253F)
T17 construct: purchased DiscoveRx Corporation (KinomeScan)
Summary of the method: as §1

[18] = biological target: T18, SIK2 (Homo sapiens, UniProt Q9H0K1)
T18 construct: purchased DiscoveRx Corporation (KinomeScan)
Summary of the method: as §1

[19] = biological target: T19, SGK3 (Homo sapiens, UniProt Q96BR1)
T19 construct: purchased DiscoveRx Corporation (KinomeScan)
Summary of the method: as §1

[20] = biological target: T20, PKN1 (Homo sapiens, UniProt Q16512)
T20 construct: purchased DiscoveRx Corporation (KinomeScan)
T20 sequence (Q16512 whole entry): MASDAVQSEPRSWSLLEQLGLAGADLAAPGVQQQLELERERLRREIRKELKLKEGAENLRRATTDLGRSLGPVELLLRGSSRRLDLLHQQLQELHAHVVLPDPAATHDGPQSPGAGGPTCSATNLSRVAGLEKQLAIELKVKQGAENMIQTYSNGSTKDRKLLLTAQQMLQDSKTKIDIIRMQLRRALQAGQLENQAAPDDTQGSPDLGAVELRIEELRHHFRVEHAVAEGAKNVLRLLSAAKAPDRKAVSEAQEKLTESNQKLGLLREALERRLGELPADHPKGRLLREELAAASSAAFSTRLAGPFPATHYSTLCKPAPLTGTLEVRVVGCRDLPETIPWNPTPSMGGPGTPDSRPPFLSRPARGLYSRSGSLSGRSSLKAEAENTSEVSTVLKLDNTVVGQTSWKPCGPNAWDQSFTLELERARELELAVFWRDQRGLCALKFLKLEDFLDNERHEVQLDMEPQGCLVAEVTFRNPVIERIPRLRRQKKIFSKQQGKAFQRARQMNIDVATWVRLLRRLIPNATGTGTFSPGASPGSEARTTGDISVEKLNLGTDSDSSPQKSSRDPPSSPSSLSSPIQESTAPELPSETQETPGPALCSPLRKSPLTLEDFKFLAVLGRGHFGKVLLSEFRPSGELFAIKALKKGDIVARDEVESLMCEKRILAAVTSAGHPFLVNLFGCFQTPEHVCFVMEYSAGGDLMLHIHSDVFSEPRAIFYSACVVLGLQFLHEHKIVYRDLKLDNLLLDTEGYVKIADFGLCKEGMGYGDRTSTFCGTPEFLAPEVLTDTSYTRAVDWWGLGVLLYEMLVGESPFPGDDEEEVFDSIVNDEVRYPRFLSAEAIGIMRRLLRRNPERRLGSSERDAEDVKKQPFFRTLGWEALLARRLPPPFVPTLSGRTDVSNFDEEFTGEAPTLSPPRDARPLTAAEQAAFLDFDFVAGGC
Summary of the method: as §1

[21] = biological target: T21, MAP3K2 (Homo sapiens, UniProt Q9Y2U5)
T21 construct: purchased DiscoveRx Corporation (KinomeScan)
Summary of the method: as §1

[22] = biological target: T22, EGFR(E746-A750del) (Homo sapiens, UniProt P00533, DEL746-750)
T22 construct: purchased DiscoveRx Corporation (KinomeScan)
Summary of the method: as §1

[23] = biological target: T23, SRPK1 (Homo sapiens, UniProt Q96SB4)
T23 construct: purchased DiscoveRx Corporation (KinomeScan)
Summary of the method: as §1

[24] = biological target: T24, MAPKAPK2 (Homo sapiens, UniProt P49137)
T24 construct: purchased DiscoveRx Corporation (KinomeScan)
Summary of the method: as §1

[25] = biological target: T25, PRKCD (Homo sapiens, UniProt Q05655)
T25 construct: purchased DiscoveRx Corporation (KinomeScan)
Summary of the method: as §1

[26] = biological target: T26, HIPK4 (Homo sapiens, UniProt Q8NE63)
T26 construct: purchased DiscoveRx Corporation (KinomeScan)
Summary of the method: as §1

[27] = biological target: T27, ULK2 (Homo sapiens, UniProt Q8IYT8)
T27 construct: purchased DiscoveRx Corporation (KinomeScan service)
T27 sequence (Q8IYT8 whole entry): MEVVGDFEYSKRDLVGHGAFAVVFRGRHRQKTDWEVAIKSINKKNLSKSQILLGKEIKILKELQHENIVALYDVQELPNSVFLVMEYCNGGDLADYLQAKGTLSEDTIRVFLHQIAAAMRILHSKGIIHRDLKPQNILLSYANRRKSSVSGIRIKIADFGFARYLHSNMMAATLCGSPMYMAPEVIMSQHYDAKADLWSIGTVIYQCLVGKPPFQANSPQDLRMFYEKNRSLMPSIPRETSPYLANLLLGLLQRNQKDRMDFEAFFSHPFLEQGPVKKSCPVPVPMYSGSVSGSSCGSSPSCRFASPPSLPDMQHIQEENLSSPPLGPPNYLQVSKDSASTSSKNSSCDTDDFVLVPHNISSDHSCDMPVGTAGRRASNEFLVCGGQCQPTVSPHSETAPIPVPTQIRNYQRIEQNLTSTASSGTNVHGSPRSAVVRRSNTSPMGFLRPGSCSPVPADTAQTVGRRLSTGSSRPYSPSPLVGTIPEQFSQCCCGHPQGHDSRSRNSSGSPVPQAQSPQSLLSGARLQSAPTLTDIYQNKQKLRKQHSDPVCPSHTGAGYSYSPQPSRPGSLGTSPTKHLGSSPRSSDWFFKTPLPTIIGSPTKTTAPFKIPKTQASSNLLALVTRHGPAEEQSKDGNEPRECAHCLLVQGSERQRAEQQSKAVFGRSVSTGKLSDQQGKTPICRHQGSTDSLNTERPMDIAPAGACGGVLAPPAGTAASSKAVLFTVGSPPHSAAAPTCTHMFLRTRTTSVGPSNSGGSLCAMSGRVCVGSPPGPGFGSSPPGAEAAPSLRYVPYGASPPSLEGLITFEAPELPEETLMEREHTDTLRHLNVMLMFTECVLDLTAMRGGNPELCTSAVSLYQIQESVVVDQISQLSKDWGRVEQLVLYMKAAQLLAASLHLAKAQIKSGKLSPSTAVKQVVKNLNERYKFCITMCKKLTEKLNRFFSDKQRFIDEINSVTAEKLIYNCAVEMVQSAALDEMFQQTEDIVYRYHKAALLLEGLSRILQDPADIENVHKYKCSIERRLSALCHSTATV
Summary of the method: as §1

[28] = biological target: T28, PLK1 (Homo sapiens, UniProt P53350)
T28 construct: purchased DiscoveRx Corporation (KinomeScan)
T28 sequence (P53350 whole entry): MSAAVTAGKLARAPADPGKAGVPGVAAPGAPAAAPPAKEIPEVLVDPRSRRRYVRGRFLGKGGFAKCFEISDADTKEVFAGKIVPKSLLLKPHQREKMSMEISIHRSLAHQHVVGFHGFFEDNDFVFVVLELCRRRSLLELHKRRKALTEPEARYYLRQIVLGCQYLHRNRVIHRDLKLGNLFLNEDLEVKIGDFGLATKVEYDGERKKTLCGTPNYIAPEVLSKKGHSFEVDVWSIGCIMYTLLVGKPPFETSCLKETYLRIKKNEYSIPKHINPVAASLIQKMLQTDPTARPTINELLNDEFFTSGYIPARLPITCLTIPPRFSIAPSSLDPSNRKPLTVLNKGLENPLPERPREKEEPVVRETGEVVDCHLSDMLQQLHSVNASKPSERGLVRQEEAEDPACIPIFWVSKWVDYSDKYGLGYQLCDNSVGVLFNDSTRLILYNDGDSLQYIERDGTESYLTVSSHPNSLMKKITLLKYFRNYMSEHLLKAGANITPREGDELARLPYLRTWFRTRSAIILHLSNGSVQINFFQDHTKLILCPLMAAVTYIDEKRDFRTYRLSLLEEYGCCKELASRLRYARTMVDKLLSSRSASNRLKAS
Summary of the method: as §1

[29] = biological target: T29, MYLK2 (Homo sapiens, UniProt Q9H1R3)
T29 construct: purchased DiscoveRx Corporation (KinomeScan)
Summary of the method: as §1

[30] = biological target: T30, RSK1(Kin.Dom.2-C-terminal) (Homo sapiens, UniProt Q15418)
T30 construct: Kin.Dom.2; purchased DiscoveRx Corporation
T30 sequence (Q15418 418-675 limits assumed): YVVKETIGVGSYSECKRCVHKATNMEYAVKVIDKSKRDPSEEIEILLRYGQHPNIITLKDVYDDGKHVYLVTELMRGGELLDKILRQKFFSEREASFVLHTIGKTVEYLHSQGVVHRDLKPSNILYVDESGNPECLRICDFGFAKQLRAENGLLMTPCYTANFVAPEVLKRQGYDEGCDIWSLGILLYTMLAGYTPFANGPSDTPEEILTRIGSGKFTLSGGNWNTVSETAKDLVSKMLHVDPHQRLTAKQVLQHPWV
Summary of the method: as §1

[31] = biological target: T31, LKB1 (Homo sapiens, UniProt Q15831)
T31 construct: purchased DiscoveRx Corporation (KinomeScan)
Summary of the method: as §1

[32] = biological target: T32, LATS2 (Homo sapiens, UniProt Q9NRM7)
T32 construct: purchased DiscoveRx Corporation (KinomeScan)
Summary of the method: as §1

[33] = biological target: T33, GCN2(kin.dom.2.S808G) (Homo sapiens, UniProt Q9P2K8, S808G)
T33 construct: GCN2(kin.dom.2.S808G); purchased DiscoveRx Corporation (KinomeScan)
Summary of the method: as §1

[34] = biological target: T34, CDKL3 (Homo sapiens, UniProt Q8IVW4)
T34 construct: purchased DiscoveRx Corporation (KinomeScan)
Summary of the method: as §1

## CCOP(=O)(CN1CCC(COc2cc3nccc(Oc4ccc(NC(=O)C5(C(=O)Nc6ccc(F)cc6)CC5)cc4F)c3cc2OC)CC1)OCC [Example 10, N1-[4-[[7-[[1-(diethoxyphosphorylmethyl)-4-piperidinyl]methoxyl]-6-methoxyl-4-quinolyl]oxyl]-3-fluorophenyl]-N1′-(4-fluorophenyl)cyclopropane-1,1-dicarboxamide]
[1]
  % Ctrl@1000 nM: 84 % Ctrl
[2]
  % Ctrl@1000 nM: 40 % Ctrl
[3]
  % Ctrl@1000 nM: 30 % Ctrl
[4]
  % Ctrl@1000 nM: 59 % Ctrl
[5]
  % Ctrl@1000 nM: 3.2 % Ctrl
[6]
  % Ctrl@1000 nM: 100 % Ctrl
[7]
  % Ctrl@1000 nM: 100 % Ctrl
[8]
  % Ctrl@1000 nM: 75 % Ctrl
[9]
  % Ctrl@1000 nM: 63 % Ctrl
[10]
  % Ctrl@1000 nM: 100 % Ctrl
[11]
  % Ctrl@1000 nM: 100 % Ctrl
[12]
  % Ctrl@1000 nM: 4.4 % Ctrl
[13]
  % Ctrl@1000 nM: 100 % Ctrl
[14]
  % Ctrl@1000 nM: 100 % Ctrl
[15]
  % Ctrl@1000 nM: 1.7 % Ctrl
[16]
  % Ctrl@1000 nM: 63 % Ctrl
[17]
  % Ctrl@1000 nM: 32 % Ctrl
[18]
  % Ctrl@1000 nM: 100 % Ctrl
[19]
  % Ctrl@1000 nM: 75 % Ctrl
[20]
  % Ctrl@1000 nM: 100 % Ctrl
[21]
  % Ctrl@1000 nM: 100 % Ctrl
[22]
  % Ctrl@1000 nM: 92 % Ctrl
[23]
  % Ctrl@1000 nM: 70 % Ctrl
[24]
  % Ctrl@1000 nM: 100 % Ctrl
[25]
  % Ctrl@1000 nM: 100 % Ctrl
[26]
  % Ctrl@1000 nM: 0.15 % Ctrl
[27]
  % Ctrl@1000 nM: 100 % Ctrl
[28]
  % Ctrl@1000 nM: 100 % Ctrl
[29]
  % Ctrl@1000 nM: 100 % Ctrl
[30]
  % Ctrl@1000 nM: 100 % Ctrl
[31]
  % Ctrl@1000 nM: 100 % Ctrl
[32]
  % Ctrl@1000 nM: 96 % Ctrl
[33]
  % Ctrl@1000 nM: 100 % Ctrl
[34]
  % Ctrl@1000 nM: 100 % Ctrl
